Experimental data: patent US8496945B2, “Nanoparticle delivery systems for membrane-integrating peptides” (priority 2007, dated 2013)
“And” between values parts separate entries of the source, which are not always exact repeats. Identical values can stand only once.

How the values were obtained:
red cells = test: Hemolysis assay; format: cell-based, Human; settings: 5×10^7 red cells, 37° C., 3 hours; read-out: IC50 (concentration that causes 50% hemolysis)
Method: Human umbilical cord blood was obtained from healthy donors after informed consent. The red cells were separated by centrifugation at 200 g for 10 min and resuspended in normal saline. Various concentrations of melittin or melittin-carrying nanoparticles were added to a fixed number of red cells (5×10^7 cells) and incubated at 37° C. for 3 hours. The release of hemoglobin was quantified by measuring the absorbance at 540 nm of the supernatant in a Microplate Reader (Model 550, BioRad) after centrifugation. The absorbance of the supernatant obtained by incubating the red cells in water under identical conditions was set to 100%.

C-32 melanoma cells [1] = test: Lactate dehydrogenase release assay; format: cell-based; settings: 1 hour at 37° C., 0.1% triton-X 100 = 100%
Method: Lactate dehydrogenase (LDH) is a stable enzyme that is rapidly released from the cells upon plasma membrane damage. The lactate dehydrogenase release assay kit was obtained from BioVision (Mountain View, Calif.) and the assay performed according to manufacturers instructions. Briefly, C-32 melanoma cells were either treated with free melittin or melittin-nanoparticles at various concentrations for 1 hour at 37° C. and the amount of lactate dehydrogenase released quantified. Cells treated with 0.1% triton-X 100 were taken as 100% release.

C-32 melanoma cells [2] = test: Cytochrome c release assay; format: cell-based
Method: Cytochrome c is a water-soluble 15 kDa protein residing in the mitochondrial intermembrane space and is released early during apoptosis. To determine if melittin-loaded nanodroplets trigger release of cytochrome c, C-32 melanoma cells were treated with varying concentrations of melittin-nanoparticles for 1 hour at 37° C. following which the mitochondria were isolated by using the Mitochondrial Isolation Kit (Pierce Biotechnology, Rockford, Ill.). The cytochrome c present in the mitochondrial and cytosol fractions thus obtained was assayed by using the cytochrome c ELISA kit (Invitrogen, Carlsbad, Calif.).

C-32 melanoma cells [3] = test: Cell proliferation inhibition (MTT) assay; format: cell-based; settings: 3 hours treatment, then 72 hours
Method: The effect of αvβ3-targeted melittin-nanoparticles on C-32 cancer cell proliferation was determined by the 3-[4,5-dimethylthiazol-2-yl]2,5-diphenyltetrazolium bromide (MTT) assay. The assay measures the activity of a mitochondrial enzyme that converts MTT, a tetrazolium salt, into a formazan crystal that absorbs at 570 nm.
(§1) C-32 melanoma cells were seeded in 96-well plates at a seeding density of 5,000 cells/well. After overnight incubation at 37° C., the cells were treated with free melittin, αvβ3-targeted or nontargeted melittin nanoparticles at various concentrations. At the end of 3 hours of incubation at 37° C., the cells were washed three times with PBS and incubated at 37° C. for a period of 72 hours. Then the medium was aspirated, and the cells rinsed with phosphate buffered saline (PBS) and 20 μl MTT solution (Sigma-Aldrich, St. Louis, Mo., final concentration 5 mg/ml in PBS) was added to each well. Cells were further incubated at 37° C. for 30 min, solubilized in 200 μl DMSO to dissolve the precipitated formazan and the absorbance read on a microplate reader (Biorad, Model 550) at 570 nm. Background absorbencies were subtracted and untreated control cells were set at 100% viability.

[4] = Surface plasmon resonance kinetics of melittin insertion in lipid monolayers (Biacore L1 chip); format: binding; settings: melittin 15 to 1,000 nM
Method: The kinetics of melittin insertion in lipid monolayers of perfluorocarbon nanoparticles was studied by surface plasmon resonance (SPR). SPR detects change in the reflective index of a surface. Biacore-X biosensor and carboxy methylated dextran chip L1 were obtained from Biacore, Inc (Piscataway, N.J.). All solutions were degassed and filtered through a 0.22 μm membrane as recommended. A uniform lipid monolayer on an L1 chip was created by injecting 35 μl PFOB nanoparticles (3 μl/min). Loosely deposited nanoparticles were removed by first increasing the flow rate to […] for 2 min followed by an injection of NaOH (50 μl, 10 mM) to ensure a stable baseline. Complete coverage was confirmed by injecting the negative control bovine serum albumin (25 μl, […] in PBS). Melittin in various concentrations was then injected at a flow rate of 30 μl/min (30 μl in PBS; 15 nM to 1000 nM) and the response recorded for 60 minutes. At the end of each experiment the chip was regenerated by two consecutive injections of 3-[(3-cholamidopropyl)dimethylammonio]-1-propanesulfonate (CHAPS) (50 μl, 100 μl/min). A series of sensorgrams was generated for the selected melittin concentrations. The data were analyzed globally by simultaneously fitting the peptide sensorgrams obtained at various concentrations using the BIAevaluation™ software (Biacore, Inc, Piscataway, N.J.). […]

[5] = test system: cholesterol-depleted C-32 Melanoma cells; test: Effect of cholesterol depletion on cell death (MTT assay); format: cell-based; settings: 0.25 mM and 0.5 mM, no melittin
Method: as §1
The role of cholesterol in modulating the melittin activity on the cell membrane was assessed by depleting cells of cholesterol before the cell proliferation assay and flow cytometry (as described above). […] To quantify the amount of cholesterol depleted by methyl beta cyclodextrin, total lipids were extracted from melanoma cells by standard procedure. […] The total cholesterol content in the cells was determined by using the Amplex® Red Cholesterol Assay kit (Sigma, St. Louis, Mo.). […]

C-32 melanoma cells [6] = test: Cholesterol depletion, Amplex Red Cholesterol Assay; format: cell-based; settings: 15 min at 37° C.
Method: The role of cholesterol in modulating the melittin activity on the cell membrane was assessed by depleting cells of cholesterol before the cell proliferation assay and flow cytometry (as described above). C-32 Melanoma cells were treated with either 0.25 mM or 0.5 mM methyl beta cyclodextrin (Sigma, St. Louis, Mo.) for 15 min at 37° C. to deplete cholesterol. To quantify the amount of cholesterol depleted by methyl beta cyclodextrin, total lipids were extracted from melanoma cells by standard procedure. Briefly, 10^6 C-32 melanoma cells grown in 6-well tissue culture plates were scraped by a rubber policeman and the pellet obtained post-centrifugation was treated with 200 μl chloroform-methanol (2:1). After spinning top speed in a microcentrifuge, the organic phase was collected and vacuum dried. The dried lipids were then dissolved in 20 μl of 2-propanol containing 10% triton-X 100 as assay samples. The total cholesterol content in the cells was determined by using the Amplex® Red Cholesterol Assay kit (Sigma, St. Louis, Mo.). Cholesterol standard was used for calibration as per manufacturer's recommendations.

Row | Molecule | IC50 (red cells) [µM] | LDH release (C-32 melanoma cells [1]; 1 μM) | LDH release (C-32 melanoma cells [1]; 5 μM) | release of cytochrome c from the mitochondria (C-32 melanoma cells [2]; 1 hour at 37° C., varying concentrations) | cytochrome c release (C-32 melanoma cells [2]; at the higher concentrations) [%] | IC50 (C-32 melanoma cells [3]) [µM] | association rate constant (ka) [4] | cell proliferation [5] | depletion of cholesterol (C-32 melanoma cells [6]; 0.25 mM) [%] | depletion of cholesterol (C-32 melanoma cells [6]; 0.5 mM) [%]
1 | CC[C@H](C)[C@H](NC(=O)CN)C(=O)NCC(=O)N[C@@H](C)C(=O)N[C@H](C(=O)N[C@@H](CC(C)C)C(=O)N[C@@H](CCCCN)C(=O)N[C@H](C(=O)N[C@@H](CC(C)C)C(=O)N[C@H](C(=O)N[C@H](C(=O)NCC(=O)N[C@@H](CC(C)C)C(=O)N1CCC[C@H]1C(=O)N[C@@H](C)C(=O)N[C@@H](CC(C)C)C(=O)N[C@H](C(=O)N[C@@H](CO)C(=O)N[C@@H](Cc1c[nH]c2ccccc12)C(=O)N[C@H](C(=O)N[C@@H](CCCCN)C(=O)N[C@@H](CCCNC(=N)N)C(=O)N[C@@H](CCCCN)C(=O)N[C@@H](CCCNC(=N)N)C(=O)N[C@@H](CCC(N)=O)C(=O)N[C@@H](CCC(N)=O)C(N)=O)[C@@H](C)CC)[C@@H](C)CC)[C@@H](C)O)[C@@H](C)O)C(C)C)C(C)C [free melittin, melittin] | 0.51 ± 0.12 | 19.17 (±4.2) percent | 68.14 (±7.1) percent and 68.14±4.3% | dose-dependent release | 55.48±6.1 | 0.93 ± 0.08 | 4.5±0.35×10^6 (Ms)^−1 |  |  | 
2 | methyl beta cyclodextrin |  |  |  |  |  |  |  | no change in cell proliferation | 7 | 12
